Assay results published in patent US9944602B2, “Piperidinone herbicides” (E. I. DU PONT DE NEMOURS AND COMPANY, priority 2014, dated 2018).

Tests used:
[1] = tested on: barnyardgrass (Echinochloa crus-galli); assay: Test A preemergence barnyardgrass; type: in vivo; details: Echinochloa crus-galli, pre-emergence, 240 h, 0 to 100 scale, 0 no effect, 100 complete control, read-out: Barnyardgrass plant response rating; for pest or weed control at 125 g/ha: 125 g ai/ha; for pest or weed control at 500 g/ha: 500 g ai/ha
How it was run: (§1)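 Both application timings used the same loam-and-sand medium and the same solvent–surfactant formulation. Postemergence plants were 2–10 cm at the one- to two-leaf stage. After roughly 10 d of greenhouse growth, injury was judged visually against untreated plants, where 0 is no effect and 100 complete control.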

[2] = tested on: kochia (Kochia scoparia); assay: Test A preemergence kochia; type: in vivo; details: Bassia scoparia, pre-emergence, 240 h, 0 to 100 scale, 0 no effect, 100 complete control, read-out: Kochia plant response rating; for pest or weed control at 125 g/ha: 125 g ai/ha; for pest or weed control at 500 g/ha: 500 g ai/ha
How it was run: as §1

[3] = tested on: ragweed (common ragweed, Ambrosia elatior); assay: Test A preemergence ragweed; type: in vivo; details: Ambrosia artemisiifolia, pre-emergence, 240 h, 0 to 100 scale, 0 no effect, 100 complete control, read-out: Ragweed plant response rating; for pest or weed control at 125 g/ha: 125 g ai/ha; for pest or weed control at 500 g/ha: 500 g ai/ha
How it was run: as §1

[4] = tested on: ryegrass, Italian (Italian ryegrass, Lolium multiflorum); assay: Test A preemergence ryegrass, Italian; type: in vivo; details: Lolium multiflorum, pre-emergence, 240 h, 0 to 100 scale, 0 no effect, 100 complete control, read-out: Ryegrass, Italian plant response rating; for pest or weed control at 125 g/ha: 125 g ai/ha; for pest or weed control at 500 g/ha: 500 g ai/ha
How it was run: as §1

[5] = tested on: foxtail, giant (giant foxtail, Setaria faberii); assay: Test A preemergence foxtail, giant; type: in vivo; details: Setaria faberi, pre-emergence, 240 h, 0 to 100 scale, 0 no effect, 100 complete control, read-out: Foxtail, Giant plant response rating; for pest or weed control at 125 g/ha: 125 g ai/ha; for pest or weed control at 500 g/ha: 500 g ai/ha
How it was run: as §1

[6] = tested on: pigweed (Amaranthus retroflexus); assay: Test A preemergence pigweed; type: in vivo; details: Amaranthus retroflexus, pre-emergence, 240 h, 0 to 100 scale, 0 no effect, 100 complete control, read-out: Pigweed plant response rating; for pest or weed control at 125 g/ha: 125 g ai/ha; for pest or weed control at 500 g/ha: 500 g ai/ha
How it was run: as §1

[7] = tested on: barnyardgrass (Echinochloa crus-galli); assay: Test A postemergence barnyardgrass; type: in vivo; details: Echinochloa crus-galli, post-emergence, 240 h, 0 to 100 scale, 0 is no effect, 100 is complete control, read-out: Plant response rating, Barnyardgrass; for pest or weed control at 125 g/ha: 125 g ai/ha; for pest or weed control at 500 g/ha: 500 g ai/ha
How it was run: as §1

[8] = tested on: kochia (Kochia scoparia); assay: Test A postemergence kochia; type: in vivo; details: Bassia scoparia, post-emergence, 240 h, 0 to 100 scale, 0 is no effect, 100 is complete control, read-out: Plant response rating, Kochia; for pest or weed control at 125 g/ha: 125 g ai/ha; for pest or weed control at 500 g/ha: 500 g ai/ha
How it was run: as §1

[9] = tested on: ragweed (common ragweed, Ambrosia elatior); assay: Test A postemergence ragweed; type: in vivo; details: Ambrosia artemisiifolia, post-emergence, 240 h, 0 to 100 scale, 0 is no effect, 100 is complete control, read-out: Plant response rating, Ragweed; for pest or weed control at 125 g/ha: 125 g ai/ha; for pest or weed control at 500 g/ha: 500 g ai/ha
How it was run: as §1

[10] = tested on: ryegrass, Italian (Italian ryegrass, Lolium multiflorum); assay: Test A postemergence ryegrass, Italian; type: in vivo; details: Lolium multiflorum, post-emergence, 240 h, 0 to 100 scale, 0 is no effect, 100 is complete control, read-out: Plant response rating, Ryegrass, Italian; for pest or weed control at 125 g/ha: 125 g ai/ha; for pest or weed control at 500 g/ha: 500 g ai/ha
How it was run: as §1

[11] = tested on: foxtail, giant (giant foxtail, Setaria faberii); assay: Test A postemergence foxtail, giant; type: in vivo; details: Setaria faberi, post-emergence, 240 h, 0 to 100 scale, 0 is no effect, 100 is complete control, read-out: Plant response rating, Foxtail, Giant; for pest or weed control at 125 g/ha: 125 g ai/ha; for pest or weed control at 500 g/ha: 500 g ai/ha
How it was run: as §1

[12] = tested on: pigweed (Amaranthus retroflexus); assay: Test A postemergence pigweed; type: in vivo; details: Amaranthus retroflexus, post-emergence, 240 h, 0 to 100 scale, 0 is no effect, 100 is complete control, read-out: Plant response rating, Pigweed; for pest or weed control at 125 g/ha: 125 g ai/ha; for pest or weed control at 500 g/ha: 500 g ai/ha
How it was run: as §1

[13] = tested on: wheat (Triticum aestivum); assay: Test A postemergence wheat; type: in vivo; details: Triticum aestivum, post-emergence, 240 h, 0 to 100 scale, 0 is no effect, 100 is complete control, read-out: Plant response rating, Wheat; for plant injury at 125 g/ha: 125 g ai/ha; for plant injury at 500 g/ha: 500 g ai/ha
How it was run: as §1

[14] = tested on: corn (Zea mays); assay: Test A postemergence corn; type: in vivo; details: Zea mays, post-emergence, 240 h, 0 to 100 scale, 0 is no effect, 100 is complete control; for Corn plant response rating (crop injury, 0 = no effect, 100 = complete kill) at 125 g/ha: 125 g ai/ha; for Corn plant response rating (crop injury, 0 = no effect, 100 = complete kill) at 500 g/ha: 500 g ai/ha
How it was run: as §1

[15] = tested on: blackgrass (Alopecurus myosuroides); assay: Test A postemergence blackgrass; type: in vivo; details: Alopecurus myosuroides, post-emergence, 240 h, 0 to 100 scale, 0 is no effect, 100 is complete control, read-out: Plant response rating, Blackgrass; for pest or weed control at 125 g/ha: 125 g ai/ha; for pest or weed control at 500 g/ha: 500 g ai/ha
How it was run: as §1

[16] = tested on: galium (catchweed bedstraw, Galium aparine); assay: Test A postemergence galium; type: in vivo; details: Galium, post-emergence, 240 h, 0 to 100 scale, 0 is no effect, 100 is complete control, read-out: Plant response rating, Galium; for pest or weed control at 125 g/ha: 125 g ai/ha; for pest or weed control at 500 g/ha: 500 g ai/ha
How it was run: as §1

[17] = tested on: rice (Oryza sativa); assay: Test B flooded paddy test rice; type: in vivo; details: Oryza sativa, Table B, Flood, 250 g ai/ha, scale 0 to 100, read-out: Plant response rating
How it was run: (§2)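 Test pots carrying 2-leaf-stage seedlings were flooded to 3 cm above the soil surface when treated. Compound went directly into the standing water. Plants stayed in the greenhouse at that depth for 13 to 15 d before visual comparison with controls.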

[18] = tested on: sedge, umbrella (small-flower umbrella sedge, Cyperus difformis); assay: Test B flooded paddy test sedge, umbrella; type: in vivo; details: Cyperus difformis, Table B, Flood, 250 g ai/ha, scale 0 to 100, read-out: Plant response rating
How it was run: as §2

[19] = tested on: ducksalad (Heteranthera limosa); assay: Test B flooded paddy test ducksalad; type: in vivo; details: Heteranthera limosa, Table B, Flood, 250 g ai/ha, scale 0 to 100, read-out: Plant response rating
How it was run: as §2

[20] = tested on: barnyardgrass (Echinochloa crus-galli); assay: Test B flooded paddy test barnyardgrass; type: in vivo; details: Echinochloa crus-galli, Table B, Flood, 250 g ai/ha, scale 0 to 100, read-out: Plant response rating
How it was run: as §2

Compound	pest or weed control at 125 g/ha [1]	pest or weed control at 500 g/ha [1]	pest or weed control at 125 g/ha [2]	pest or weed control at 500 g/ha [2]	pest or weed control at 125 g/ha [3]	pest or weed control at 500 g/ha [3]	pest or weed control at 125 g/ha [4]	pest or weed control at 500 g/ha [4]	pest or weed control at 125 g/ha [5]	pest or weed control at 500 g/ha [5]	pest or weed control at 125 g/ha [6]	pest or weed control at 500 g/ha [6]	pest or weed control at 125 g/ha [7]	pest or weed control at 500 g/ha [7]	pest or weed control at 125 g/ha [8]	pest or weed control at 500 g/ha [8]	pest or weed control at 125 g/ha [9]	pest or weed control at 500 g/ha [9]	pest or weed control at 125 g/ha [10]	pest or weed control at 500 g/ha [10]	other results
O=C1NCCC(c2cccc(Cl)c2)C1C(=O)Nc1cccc(F)c1F (centres unmarked) [Compound 36, 4-(3-chlorophenyl)-N-(2,3-difluorophenyl)-2-oxo-3-piperidinecarboxamide]	90%	90%	0%	0%	0%	0%	0%	30%	90%	90%	0%	0%	80%	90%	0%	0%	0%	0%	0%	20%	pest or weed control at 125 g/ha [11]: 90%; pest or weed control at 500 g/ha [11]: 90%; pest or weed control at 125 g/ha [12]: 0%; pest or weed control at 500 g/ha [12]: 0%; plant injury at 125 g/ha [13]: 0%; plant injury at 500 g/ha [13]: 0%; Corn plant response rating (crop injury, 0 = no effect, 100 = complete kill) at 125 g/ha [14]: 0%; Corn plant response rating (crop injury, 0 = no effect, 100 = complete kill) at 500 g/ha [14]: 0%; pest or weed control at 125 g/ha [15]: 0%; pest or weed control at 500 g/ha [15]: 60%; pest or weed control at 125 g/ha [16]: 0%; pest or weed control at 500 g/ha [16]: 30%; plant injury at 250 g/ha [17]: 0%; pest or weed control at 250 g/ha [18]: 0%; pest or weed control at 250 g/ha [19]: 90%; pest or weed control at 250 g/ha [20]: 60%; melting point: 100 to 102 °C
O=C1NCCC(c2cccc(C(F)F)c2)C1C(=O)Nc1cccc(F)c1F (centres unmarked) [Compound 49, 4-[3-(difluoromethyl)phenyl]-N-(2,3-difluorophenyl)-2-oxo-3-piperidinecarboxamide]	80%	90%	0%	0%	0%	0%	0%	60%	90%	90%	0%	0%	80%	90%	0%	0%	0%	0%	0%	0%	pest or weed control at 125 g/ha [11]: 80%; pest or weed control at 500 g/ha [11]: 80%; pest or weed control at 125 g/ha [12]: 0%; pest or weed control at 500 g/ha [12]: 0%; plant injury at 125 g/ha [13]: 0%; plant injury at 500 g/ha [13]: 30%; Corn plant response rating (crop injury, 0 = no effect, 100 = complete kill) at 125 g/ha [14]: 0%; Corn plant response rating (crop injury, 0 = no effect, 100 = complete kill) at 500 g/ha [14]: 50%; pest or weed control at 125 g/ha [15]: 0%; pest or weed control at 500 g/ha [15]: 50%; pest or weed control at 125 g/ha [16]: 0%; pest or weed control at 500 g/ha [16]: 0%; plant injury at 250 g/ha [17]: 0%; pest or weed control at 250 g/ha [18]: 0%; pest or weed control at 250 g/ha [19]: 100%; pest or weed control at 250 g/ha [20]: 70%; melting point: 134 to 137 °C
